From BindingDB's records for doi:10.1016/j.bmcl.2004.03.067 (Pfizer, 2004) come the findings set out here.

Assay [1] in a line: Inhibition of Phosphodiesterase 5.
The nature of assay [2]: Inhibition of Phosphodiesterase 5. This is another data set of the same source.

Bounds are passed on as bounds.

As usually defined, the IC50 is the concentration that inhibits the measured activity by half. A lower IC50 goes with inhibition by little substance. Regarding `COc1cc2c3c(n1)C(c1ccccc1)=NC(NC(=O)c1cccnc1)C(=O)N3CC2` (centres undefined) [N-(4-methoxy-9-oxo-6-phenyl-1,2,8,9-tetrahydro-5,7,9a-triazabenzo[cd]azulen-8-yl)nicotinamide], the IC50 in assay [1] is more than 100 µM; in assay [2], 95 µM.

In the case of `COc1cc2c3c(n1)C(c1ccccc1)=NCC(=O)N3CC2` [4-Methoxy-6-phenyl-1,2-dihydro-8H-5,7,9a-triaza-benzo[cd]azulen-9-one], in assay [1], the IC50 was found to be 91 µM.

For `COc1cc2c3c(n1)C(c1ccccc1)=N[C@@H](NC(=O)c1cccnc1)C(=O)N3CC2`, the IC50 in assay [1] is more than 100 µM.
